According to the supplement of paper PMC8671470:

The compounds below were run on HL-60 (assay: cell viability (% survival relative to DMSO control); higher = less cytotoxic). Settings: drug1 concentration 5 nM; drug2 concentration 5 nM; 72 h.
Method: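 8x8 drug-combination matrices (0-5000 nM; rosiglitazone and lestaurtinib 0-1000 nM) were run in HL-60 cells for 72 h with a CellTiter-Glo read-out. Survival is normalised to DMSO and 10 µM bortezomib and clipped at 100%. Bliss synergy was analysed in SynergyFinder.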

Q: For `O=C(C1CC1)N1CC[C@@H](C=C2NNC(=O)N2c2ccc(-c3ccc4occc4c3)cc2)C1` + CS(=O)(=O)N1CCN(Cc2cc3nc(-c4cccc5[nH]ncc45)nc(N4CCOCC4)c3s2)CC1 [Pictilisib], which cell viability is on record?
A: Its cell viability is 93%.

Q: Which cell viability does the source give for `O=C(C1CC1)N1CC[C@@H](C=C2NNC(=O)N2c2ccc(-c3ccc4occc4c3)cc2)C1` + C[C@H](NC(=O)c1sccc1OCc1ccc(Cl)cc1)c1ccccc1 [as1949490] here?
A: The cell viability was 81.9%.

Q: How did the cell viability turn out when `O=C(C1CC1)N1CC[C@@H](C=C2NNC(=O)N2c2ccc(-c3ccc4occc4c3)cc2)C1` + O=C(c1c2ccccc2cc2ccccc12)N1CCC(N2CCC[C@@H](C(=O)N3CCOCC3)C2)CC1 [CP-640186] was run?
A: The cell viability was 79.6%.

Q: Which cell viability does the source give for `CC(C)c1onc(-c2c(Cl)cccc2Cl)c1COc1ccc(/C=C/c2cccc(C(=O)O)c2)c(Cl)c1` [GW4064] + Cn1cc(-c2ccncc2)c(-c2ccc(OCc3ccc4ccccc4n3)cc2)n1 [PF-02545920] here?
A: The cell viability was > 100%.

Same assay, conditions: drug1 concentration 5 nM; drug2 concentration 10 nM; 72 h

Q: `O=C(C1CC1)N1CC[C@@H](C=C2NNC(=O)N2c2ccc(-c3ccc4occc4c3)cc2)C1` + CS(=O)(=O)N1CCN(Cc2cc3nc(-c4cccc5[nH]ncc45)nc(N4CCOCC4)c3s2)CC1 [Pictilisib] was tested. Which cell viability did it give?
A: The cell viability was 70%.

Q: For `O=C(C1CC1)N1CC[C@@H](C=C2NNC(=O)N2c2ccc(-c3ccc4occc4c3)cc2)C1` + C[C@H](NC(=O)c1sccc1OCc1ccc(Cl)cc1)c1ccccc1 [as1949490], which cell viability is on record?
A: Its cell viability is > 100%.

Q: For `O=C(C1CC1)N1CC[C@@H](C=C2NNC(=O)N2c2ccc(-c3ccc4occc4c3)cc2)C1` + O=C(c1c2ccccc2cc2ccccc12)N1CCC(N2CCC[C@@H](C(=O)N3CCOCC3)C2)CC1 [CP-640186], which cell viability is on record?
A: The cell viability was 96.6%.

Q: Which cell viability does the source give for `CC(C)c1onc(-c2c(Cl)cccc2Cl)c1COc1ccc(/C=C/c2cccc(C(=O)O)c2)c(Cl)c1` [GW4064] + Cn1cc(-c2ccncc2)c(-c2ccc(OCc3ccc4ccccc4n3)cc2)n1 [PF-02545920] here?
A: The cell viability was > 100%.

Same assay, conditions: drug1 concentration 5 nM; drug2 concentration 50 nM; 72 h

Q: With `O=C(C1CC1)N1CC[C@@H](C=C2NNC(=O)N2c2ccc(-c3ccc4occc4c3)cc2)C1` + CS(=O)(=O)N1CCN(Cc2cc3nc(-c4cccc5[nH]ncc45)nc(N4CCOCC4)c3s2)CC1 [Pictilisib] as the compound, how does the cell viability read?
A: Its cell viability is 59.4%.

Q: Which cell viability does the source give for `O=C(C1CC1)N1CC[C@@H](C=C2NNC(=O)N2c2ccc(-c3ccc4occc4c3)cc2)C1` + C[C@H](NC(=O)c1sccc1OCc1ccc(Cl)cc1)c1ccccc1 [as1949490] here?
A: The cell viability was 99.3%.

Q: For `O=C(C1CC1)N1CC[C@@H](C=C2NNC(=O)N2c2ccc(-c3ccc4occc4c3)cc2)C1` + O=C(c1c2ccccc2cc2ccccc12)N1CCC(N2CCC[C@@H](C(=O)N3CCOCC3)C2)CC1 [CP-640186], which cell viability is on record?
A: Its cell viability is 90%.

Q: For `CC(C)c1onc(-c2c(Cl)cccc2Cl)c1COc1ccc(/C=C/c2cccc(C(=O)O)c2)c(Cl)c1` [GW4064] + Cn1cc(-c2ccncc2)c(-c2ccc(OCc3ccc4ccccc4n3)cc2)n1 [PF-02545920], which cell viability is on record?
A: The cell viability was > 100%.

Same assay, conditions: drug1 concentration 5 nM; drug2 concentration 100 nM; 72 h

Q: How did the cell viability turn out when `O=C(C1CC1)N1CC[C@@H](C=C2NNC(=O)N2c2ccc(-c3ccc4occc4c3)cc2)C1` + CS(=O)(=O)N1CCN(Cc2cc3nc(-c4cccc5[nH]ncc45)nc(N4CCOCC4)c3s2)CC1 [Pictilisib] was run?
A: The cell viability was 60.3%.

Q: How did the cell viability turn out when `O=C(C1CC1)N1CC[C@@H](C=C2NNC(=O)N2c2ccc(-c3ccc4occc4c3)cc2)C1` + C[C@H](NC(=O)c1sccc1OCc1ccc(Cl)cc1)c1ccccc1 [as1949490] was run?
A: The cell viability was 95.7%.

Q: How did the cell viability turn out when `O=C(C1CC1)N1CC[C@@H](C=C2NNC(=O)N2c2ccc(-c3ccc4occc4c3)cc2)C1` + O=C(c1c2ccccc2cc2ccccc12)N1CCC(N2CCC[C@@H](C(=O)N3CCOCC3)C2)CC1 [CP-640186] was run?
A: The cell viability was 88%.

Q: `CC(C)c1onc(-c2c(Cl)cccc2Cl)c1COc1ccc(/C=C/c2cccc(C(=O)O)c2)c(Cl)c1` [GW4064] + Cn1cc(-c2ccncc2)c(-c2ccc(OCc3ccc4ccccc4n3)cc2)n1 [PF-02545920] was tested. Which cell viability did it give?
A: Its cell viability is 81.7%.

Same assay, conditions: drug1 concentration 5 nM; drug2 concentration 500 nM; 72 h

Q: Which cell viability does the source give for `O=C(C1CC1)N1CC[C@@H](C=C2NNC(=O)N2c2ccc(-c3ccc4occc4c3)cc2)C1` + CS(=O)(=O)N1CCN(Cc2cc3nc(-c4cccc5[nH]ncc45)nc(N4CCOCC4)c3s2)CC1 [Pictilisib] here?
A: Its cell viability is 46.9%.

Q: `O=C(C1CC1)N1CC[C@@H](C=C2NNC(=O)N2c2ccc(-c3ccc4occc4c3)cc2)C1` + C[C@H](NC(=O)c1sccc1OCc1ccc(Cl)cc1)c1ccccc1 [as1949490] was tested. Which cell viability did it give?
A: Its cell viability is 88.6%.

Q: `O=C(C1CC1)N1CC[C@@H](C=C2NNC(=O)N2c2ccc(-c3ccc4occc4c3)cc2)C1` + O=C(c1c2ccccc2cc2ccccc12)N1CCC(N2CCC[C@@H](C(=O)N3CCOCC3)C2)CC1 [CP-640186] was tested. Which cell viability did it give?
A: Its cell viability is 86.2%.

Q: Which cell viability does the source give for `CC(C)c1onc(-c2c(Cl)cccc2Cl)c1COc1ccc(/C=C/c2cccc(C(=O)O)c2)c(Cl)c1` [GW4064] + Cn1cc(-c2ccncc2)c(-c2ccc(OCc3ccc4ccccc4n3)cc2)n1 [PF-02545920] here?
A: The cell viability was > 100%.

Same assay, conditions: drug1 concentration 5 nM; drug2 concentration 1000 nM; 72 h

Q: Which cell viability does the source give for `O=C(C1CC1)N1CC[C@@H](C=C2NNC(=O)N2c2ccc(-c3ccc4occc4c3)cc2)C1` + CS(=O)(=O)N1CCN(Cc2cc3nc(-c4cccc5[nH]ncc45)nc(N4CCOCC4)c3s2)CC1 [Pictilisib] here?
A: Its cell viability is 46.7%.

Q: For `O=C(C1CC1)N1CC[C@@H](C=C2NNC(=O)N2c2ccc(-c3ccc4occc4c3)cc2)C1` + C[C@H](NC(=O)c1sccc1OCc1ccc(Cl)cc1)c1ccccc1 [as1949490], which cell viability is on record?
A: The cell viability was 86.2%.

Q: How did the cell viability turn out when `O=C(C1CC1)N1CC[C@@H](C=C2NNC(=O)N2c2ccc(-c3ccc4occc4c3)cc2)C1` + O=C(c1c2ccccc2cc2ccccc12)N1CCC(N2CCC[C@@H](C(=O)N3CCOCC3)C2)CC1 [CP-640186] was run?
A: Its cell viability is 84%.

Q: Which cell viability does the source give for `CC(C)c1onc(-c2c(Cl)cccc2Cl)c1COc1ccc(/C=C/c2cccc(C(=O)O)c2)c(Cl)c1` [GW4064] + Cn1cc(-c2ccncc2)c(-c2ccc(OCc3ccc4ccccc4n3)cc2)n1 [PF-02545920] here?
A: Its cell viability is 97.1%.

Same assay, conditions: drug1 concentration 5 nM; drug2 concentration 5000 nM; 72 h

Q: How did the cell viability turn out when `O=C(C1CC1)N1CC[C@@H](C=C2NNC(=O)N2c2ccc(-c3ccc4occc4c3)cc2)C1` + CS(=O)(=O)N1CCN(Cc2cc3nc(-c4cccc5[nH]ncc45)nc(N4CCOCC4)c3s2)CC1 [Pictilisib] was run?
A: The cell viability was 38.6%.

Q: How did the cell viability turn out when `O=C(C1CC1)N1CC[C@@H](C=C2NNC(=O)N2c2ccc(-c3ccc4occc4c3)cc2)C1` + C[C@H](NC(=O)c1sccc1OCc1ccc(Cl)cc1)c1ccccc1 [as1949490] was run?
A: Its cell viability is 80.8%.

Q: Which cell viability does the source give for `O=C(C1CC1)N1CC[C@@H](C=C2NNC(=O)N2c2ccc(-c3ccc4occc4c3)cc2)C1` + O=C(c1c2ccccc2cc2ccccc12)N1CCC(N2CCC[C@@H](C(=O)N3CCOCC3)C2)CC1 [CP-640186] here?
A: The cell viability was 77.2%.

Q: `CC(C)c1onc(-c2c(Cl)cccc2Cl)c1COc1ccc(/C=C/c2cccc(C(=O)O)c2)c(Cl)c1` [GW4064] + Cn1cc(-c2ccncc2)c(-c2ccc(OCc3ccc4ccccc4n3)cc2)n1 [PF-02545920] was tested. Which cell viability did it give?
A: The cell viability was > 100%.

Same assay, conditions: drug1 concentration 10 nM; drug2 concentration 5 nM; 72 h

Q: For `O=C(C1CC1)N1CC[C@@H](C=C2NNC(=O)N2c2ccc(-c3ccc4occc4c3)cc2)C1` + CS(=O)(=O)N1CCN(Cc2cc3nc(-c4cccc5[nH]ncc45)nc(N4CCOCC4)c3s2)CC1 [Pictilisib], which cell viability is on record?
A: The cell viability was 71.7%.

Q: Which cell viability does the source give for `O=C(C1CC1)N1CC[C@@H](C=C2NNC(=O)N2c2ccc(-c3ccc4occc4c3)cc2)C1` + C[C@H](NC(=O)c1sccc1OCc1ccc(Cl)cc1)c1ccccc1 [as1949490] here?
A: Its cell viability is 89%.

Q: How did the cell viability turn out when `O=C(C1CC1)N1CC[C@@H](C=C2NNC(=O)N2c2ccc(-c3ccc4occc4c3)cc2)C1` + O=C(c1c2ccccc2cc2ccccc12)N1CCC(N2CCC[C@@H](C(=O)N3CCOCC3)C2)CC1 [CP-640186] was run?
A: Its cell viability is > 100%.

Q: With `CC(C)c1onc(-c2c(Cl)cccc2Cl)c1COc1ccc(/C=C/c2cccc(C(=O)O)c2)c(Cl)c1` [GW4064] + Cn1cc(-c2ccncc2)c(-c2ccc(OCc3ccc4ccccc4n3)cc2)n1 [PF-02545920] as the compound, how does the cell viability read?
A: Its cell viability is 98.6%.

Same assay, conditions: drug1 concentration 10 nM; drug2 concentration 10 nM; 72 h

Q: Which cell viability does the source give for `O=C(C1CC1)N1CC[C@@H](C=C2NNC(=O)N2c2ccc(-c3ccc4occc4c3)cc2)C1` + CS(=O)(=O)N1CCN(Cc2cc3nc(-c4cccc5[nH]ncc45)nc(N4CCOCC4)c3s2)CC1 [Pictilisib] here?
A: Its cell viability is 68.5%.

Q: With `O=C(C1CC1)N1CC[C@@H](C=C2NNC(=O)N2c2ccc(-c3ccc4occc4c3)cc2)C1` + C[C@H](NC(=O)c1sccc1OCc1ccc(Cl)cc1)c1ccccc1 [as1949490] as the compound, how does the cell viability read?
A: Its cell viability is 86.7%.

Q: Which cell viability does the source give for `O=C(C1CC1)N1CC[C@@H](C=C2NNC(=O)N2c2ccc(-c3ccc4occc4c3)cc2)C1` + O=C(c1c2ccccc2cc2ccccc12)N1CCC(N2CCC[C@@H](C(=O)N3CCOCC3)C2)CC1 [CP-640186] here?
A: The cell viability was 97.7%.

Q: How did the cell viability turn out when `CC(C)c1onc(-c2c(Cl)cccc2Cl)c1COc1ccc(/C=C/c2cccc(C(=O)O)c2)c(Cl)c1` [GW4064] + Cn1cc(-c2ccncc2)c(-c2ccc(OCc3ccc4ccccc4n3)cc2)n1 [PF-02545920] was run?
A: The cell viability was > 100%.
